IC50 data for three compounds are collected here from ChEMBL document CHEMBL4304789, “Design, Synthesis, and Biological Evaluation of 2,4-Imidazolinedione Derivatives as HDAC6 Isoform-Selective Inhibitors” (ACS Med Chem Lett, 2019).

The target of one test is Histone deacetylase 1 (Homo sapiens, UniProt Q13547). The experiment in a line: Inhibition of HDAC1 (unknown origin) using Ac-LeuGlyLys(Ac)-AMC as substrate preincubated for 5 mins followed by substrate addition and measured after 60 mins by fluorescence based assay.
The target in test [1] is T1, Protein deacetylase HDAC6 (Homo sapiens, UniProt Q9UBN7).
T1 sequence (Q9UBN7 whole entry): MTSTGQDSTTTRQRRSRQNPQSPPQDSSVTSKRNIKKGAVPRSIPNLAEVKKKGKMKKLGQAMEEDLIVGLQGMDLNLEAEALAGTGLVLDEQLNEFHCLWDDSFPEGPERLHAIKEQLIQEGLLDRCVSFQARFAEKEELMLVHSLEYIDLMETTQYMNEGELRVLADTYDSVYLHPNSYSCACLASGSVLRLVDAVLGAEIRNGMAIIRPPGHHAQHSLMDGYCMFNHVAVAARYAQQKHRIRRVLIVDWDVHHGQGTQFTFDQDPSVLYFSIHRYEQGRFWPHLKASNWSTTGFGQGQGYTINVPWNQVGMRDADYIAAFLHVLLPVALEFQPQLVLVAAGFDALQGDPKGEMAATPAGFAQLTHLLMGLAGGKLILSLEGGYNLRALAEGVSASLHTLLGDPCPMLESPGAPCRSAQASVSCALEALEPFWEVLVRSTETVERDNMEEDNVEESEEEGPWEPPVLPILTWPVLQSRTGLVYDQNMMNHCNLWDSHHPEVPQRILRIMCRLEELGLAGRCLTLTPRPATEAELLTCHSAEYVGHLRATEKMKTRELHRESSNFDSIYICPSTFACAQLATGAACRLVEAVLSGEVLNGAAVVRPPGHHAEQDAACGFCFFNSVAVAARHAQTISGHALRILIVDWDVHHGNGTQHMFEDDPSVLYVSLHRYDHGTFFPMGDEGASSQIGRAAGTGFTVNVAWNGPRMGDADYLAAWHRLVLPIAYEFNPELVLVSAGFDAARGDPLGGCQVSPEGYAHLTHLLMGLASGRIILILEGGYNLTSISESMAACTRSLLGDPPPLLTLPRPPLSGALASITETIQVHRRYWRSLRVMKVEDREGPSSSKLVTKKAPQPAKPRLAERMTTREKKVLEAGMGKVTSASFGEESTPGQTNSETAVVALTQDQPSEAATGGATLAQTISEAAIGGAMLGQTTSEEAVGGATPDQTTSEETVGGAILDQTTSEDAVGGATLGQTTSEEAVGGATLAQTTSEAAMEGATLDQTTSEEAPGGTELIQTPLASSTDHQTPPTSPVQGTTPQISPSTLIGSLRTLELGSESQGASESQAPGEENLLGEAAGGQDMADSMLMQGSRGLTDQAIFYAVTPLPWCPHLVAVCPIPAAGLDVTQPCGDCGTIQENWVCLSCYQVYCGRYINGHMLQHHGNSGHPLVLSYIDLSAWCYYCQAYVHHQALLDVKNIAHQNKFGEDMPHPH
The test can be described thus: Inhibition of HDAC6 (unknown origin) using Ac-LeuGlyLys(Ac)-AMC as substrate preincubated for 5 mins followed by substrate addition and measured after 60 mins by fluorescence based assay.

The target of another test is Histone deacetylase 4 (Homo sapiens, UniProt P56524). The experiment in a line: Inhibition of HDAC4 (unknown origin) using Ac-LeuGlyLys(tfa)-AMC as substrate preincubated for 5 mins followed by substrate addition and measured after 60 mins by fluorescence based assay.
A further test concerns the target Histone deacetylase 5 (Homo sapiens, UniProt Q9UQL6). The experiment in a line: Inhibition of HDAC5 (unknown origin) using Ac-LeuGlyLys(tfa)-AMC as substrate preincubated for 5 mins followed by substrate addition and measured after 60 mins by fluorescence based assay.
Test [2] concerns the target T2, Polyamine deacetylase HDAC10 (Homo sapiens, UniProt Q969S8).
T2 sequence (Q969S8 whole entry): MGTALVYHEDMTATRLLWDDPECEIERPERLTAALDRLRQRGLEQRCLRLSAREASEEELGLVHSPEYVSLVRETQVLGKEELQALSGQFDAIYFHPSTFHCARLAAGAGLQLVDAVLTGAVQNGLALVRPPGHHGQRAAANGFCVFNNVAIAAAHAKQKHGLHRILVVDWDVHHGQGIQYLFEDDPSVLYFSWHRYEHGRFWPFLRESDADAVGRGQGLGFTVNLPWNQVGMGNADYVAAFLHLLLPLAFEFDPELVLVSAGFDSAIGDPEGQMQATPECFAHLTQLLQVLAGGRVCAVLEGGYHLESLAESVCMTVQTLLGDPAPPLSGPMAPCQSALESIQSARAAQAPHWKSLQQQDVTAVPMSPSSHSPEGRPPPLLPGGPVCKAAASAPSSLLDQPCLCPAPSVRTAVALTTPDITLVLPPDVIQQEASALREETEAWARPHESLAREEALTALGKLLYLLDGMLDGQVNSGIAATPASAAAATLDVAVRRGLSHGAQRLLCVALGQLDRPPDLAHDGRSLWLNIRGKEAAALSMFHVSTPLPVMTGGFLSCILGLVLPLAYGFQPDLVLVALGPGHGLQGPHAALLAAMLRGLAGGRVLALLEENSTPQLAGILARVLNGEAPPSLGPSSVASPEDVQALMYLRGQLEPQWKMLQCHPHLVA
The test can be described thus: Inhibition of HDAC10 (unknown origin) using Ac-ArgThr- Lys(Ac)Lys(Ac)-AMC as substrate preincubated for 5 mins followed by substrate addition and measured after 60 mins by fluorescence based assay.

A further test concerns the target T3, Histone deacetylase 11 (Homo sapiens, UniProt Q96DB2).
T3 sequence (Q96DB2 whole entry): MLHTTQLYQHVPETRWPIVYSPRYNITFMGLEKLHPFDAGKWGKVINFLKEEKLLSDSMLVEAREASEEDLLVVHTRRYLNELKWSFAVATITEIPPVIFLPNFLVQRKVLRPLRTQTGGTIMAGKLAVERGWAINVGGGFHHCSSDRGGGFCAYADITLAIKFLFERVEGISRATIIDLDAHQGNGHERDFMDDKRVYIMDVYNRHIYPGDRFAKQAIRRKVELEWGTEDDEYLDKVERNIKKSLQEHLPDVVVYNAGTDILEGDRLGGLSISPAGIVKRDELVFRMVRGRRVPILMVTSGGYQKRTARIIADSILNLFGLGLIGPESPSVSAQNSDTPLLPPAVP
The experiment in a line: Inhibition of HDAC11 (unknown origin) using Ac-LeuGlyLys(Ac)-AMC as substrate preincubated for 5 mins followed by substrate addition and measured after 60 mins by fluorescence based assay.

In the next test the test system is K562. The experiment in a line: Antiproliferative activity against human K562 cells incubated for 48 hrs by MTT assay. It counts as functional, cell-based. As to conditions: K562, 48 h. For orientation: Formazan colour is commonly taken as a measure of viable cells.
The next test relates to HL-60. The experiment in a line: Antiproliferative activity against human HL60 cells incubated for 48 hrs by MTT assay. The class given is functional, cell-based. As to conditions: HL-60, 48 h.
Another test has as its system RPMI-8226. The experiment in a line: Antiproliferative activity against human RPMI8226 cells incubated for 48 hrs by MTT assay. It counts as functional, cell-based. To be noted: RPMI-8226, 48 h.
The subject of a further test is A549. The test can be described thus: Antiproliferative activity against human A549 cells incubated for 48 hrs by MTT assay. The class given is functional, cell-based. To be noted: A549, 48 h.

Histone deacetylase 4, sequence (P56524 whole entry): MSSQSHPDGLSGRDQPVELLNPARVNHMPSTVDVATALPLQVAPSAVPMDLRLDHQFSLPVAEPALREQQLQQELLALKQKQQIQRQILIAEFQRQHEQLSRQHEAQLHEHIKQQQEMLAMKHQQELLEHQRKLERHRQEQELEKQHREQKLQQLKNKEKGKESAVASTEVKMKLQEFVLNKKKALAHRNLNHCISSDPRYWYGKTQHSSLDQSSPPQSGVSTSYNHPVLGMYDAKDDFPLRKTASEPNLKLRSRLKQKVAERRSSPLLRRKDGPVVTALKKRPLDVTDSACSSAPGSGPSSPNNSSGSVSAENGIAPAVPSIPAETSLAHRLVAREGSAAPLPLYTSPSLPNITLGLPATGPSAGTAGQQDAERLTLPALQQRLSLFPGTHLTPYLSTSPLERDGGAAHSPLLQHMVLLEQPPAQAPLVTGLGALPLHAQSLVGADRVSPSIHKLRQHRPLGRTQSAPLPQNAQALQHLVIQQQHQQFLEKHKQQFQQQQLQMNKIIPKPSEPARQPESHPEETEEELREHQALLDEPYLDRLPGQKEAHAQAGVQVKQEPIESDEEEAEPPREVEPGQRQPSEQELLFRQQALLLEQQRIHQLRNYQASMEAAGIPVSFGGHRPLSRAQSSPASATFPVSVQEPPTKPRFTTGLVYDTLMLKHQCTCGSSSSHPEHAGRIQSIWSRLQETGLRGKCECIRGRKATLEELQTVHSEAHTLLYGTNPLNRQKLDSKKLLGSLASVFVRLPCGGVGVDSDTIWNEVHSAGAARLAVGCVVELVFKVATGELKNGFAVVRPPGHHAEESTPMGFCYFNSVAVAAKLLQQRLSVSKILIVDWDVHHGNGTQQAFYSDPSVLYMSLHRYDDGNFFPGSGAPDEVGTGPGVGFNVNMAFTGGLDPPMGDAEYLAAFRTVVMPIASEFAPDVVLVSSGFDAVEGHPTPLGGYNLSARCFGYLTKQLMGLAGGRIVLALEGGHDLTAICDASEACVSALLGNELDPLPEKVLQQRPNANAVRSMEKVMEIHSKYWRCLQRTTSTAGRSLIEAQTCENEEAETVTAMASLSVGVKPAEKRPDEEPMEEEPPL
Histone deacetylase 5, sequence (Q9UQL6 whole entry): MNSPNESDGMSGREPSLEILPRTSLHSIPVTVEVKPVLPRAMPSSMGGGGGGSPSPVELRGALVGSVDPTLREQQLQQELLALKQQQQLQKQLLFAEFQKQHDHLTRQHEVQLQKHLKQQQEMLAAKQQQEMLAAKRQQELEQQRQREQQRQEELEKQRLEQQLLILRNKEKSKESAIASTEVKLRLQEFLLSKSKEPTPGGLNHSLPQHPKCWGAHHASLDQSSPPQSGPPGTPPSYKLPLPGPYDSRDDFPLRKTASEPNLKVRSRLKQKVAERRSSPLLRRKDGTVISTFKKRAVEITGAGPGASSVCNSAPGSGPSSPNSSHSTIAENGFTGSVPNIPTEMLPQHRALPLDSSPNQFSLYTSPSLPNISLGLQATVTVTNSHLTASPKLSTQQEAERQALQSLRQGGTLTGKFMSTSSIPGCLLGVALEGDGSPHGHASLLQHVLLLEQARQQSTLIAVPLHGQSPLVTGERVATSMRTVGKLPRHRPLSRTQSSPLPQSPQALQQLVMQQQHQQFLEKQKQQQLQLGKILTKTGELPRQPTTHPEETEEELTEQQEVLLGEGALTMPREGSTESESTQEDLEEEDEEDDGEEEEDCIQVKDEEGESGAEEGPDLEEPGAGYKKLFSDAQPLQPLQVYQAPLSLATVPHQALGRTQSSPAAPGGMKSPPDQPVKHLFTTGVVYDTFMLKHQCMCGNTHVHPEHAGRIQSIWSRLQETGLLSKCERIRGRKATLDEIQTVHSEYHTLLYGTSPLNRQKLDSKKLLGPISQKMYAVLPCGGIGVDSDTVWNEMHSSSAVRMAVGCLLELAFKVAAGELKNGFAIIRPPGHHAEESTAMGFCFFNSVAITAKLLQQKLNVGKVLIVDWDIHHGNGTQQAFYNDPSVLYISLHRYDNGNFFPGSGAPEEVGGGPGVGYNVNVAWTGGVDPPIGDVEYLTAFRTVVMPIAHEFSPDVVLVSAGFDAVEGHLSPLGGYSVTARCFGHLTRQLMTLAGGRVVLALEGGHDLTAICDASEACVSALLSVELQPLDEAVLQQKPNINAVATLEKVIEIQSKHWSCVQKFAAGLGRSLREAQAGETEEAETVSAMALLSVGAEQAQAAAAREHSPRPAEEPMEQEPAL
Histone deacetylase 1, sequence (Q13547 whole entry): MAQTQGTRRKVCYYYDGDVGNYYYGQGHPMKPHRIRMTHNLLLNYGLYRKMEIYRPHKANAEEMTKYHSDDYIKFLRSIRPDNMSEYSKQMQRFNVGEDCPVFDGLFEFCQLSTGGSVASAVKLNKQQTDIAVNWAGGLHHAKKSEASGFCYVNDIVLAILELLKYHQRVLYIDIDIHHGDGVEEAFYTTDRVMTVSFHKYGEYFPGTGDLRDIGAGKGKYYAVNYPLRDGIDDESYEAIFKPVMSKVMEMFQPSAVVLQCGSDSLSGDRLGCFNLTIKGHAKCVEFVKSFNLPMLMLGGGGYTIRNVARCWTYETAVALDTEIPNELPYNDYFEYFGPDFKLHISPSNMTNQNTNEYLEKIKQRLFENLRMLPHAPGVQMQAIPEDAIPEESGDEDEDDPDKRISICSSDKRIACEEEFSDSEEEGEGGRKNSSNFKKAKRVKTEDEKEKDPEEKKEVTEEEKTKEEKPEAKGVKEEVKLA

As to `O=C(CCC1C(=O)N(c2ccc(Cl)cc2)C(=O)N1Cc1ccccc1)Nc1ccc(C(=O)NO)cc1` (stereo not given), the concentration for half-maximal inhibition (IC50) – broadly, the midpoint of a concentration-inhibition curve – at Histone deacetylase 1 was 0.111 µM; in [1], 0.0076 µM; at Histone deacetylase 4, 27 µM; against Histone deacetylase 5, 4.6 µM; in test [2], 0.114 µM; against Histone deacetylase 11 it was greater than 100 µM. For the same compound, the IC50 stood at 0.83 µM with K562, 0.61 µM in the test on HL-60, 0.64 µM with RPMI-8226 and 9.45 µM in the test on A549.
In the case of `O=C(CCC1C(=O)N(c2ccc(Cl)cc2)C(=O)N1Cc1ccc(Br)cc1)Nc1ccc(C(=O)NO)cc1` (stereo not given), the half-inhibitory concentration (IC50) is 0.194 µM against Histone deacetylase 1; 0.0097 µM in test [1]; greater than 100 µM against Histone deacetylase 4; 4.6 µM on Histone deacetylase 5; 0.268 µM in [2]; greater than 100 µM against Histone deacetylase 11. Besides, the IC50 in the test on K562 is 0.69 µM; with HL-60, 0.34 µM; in the test with RPMI-8226, 0.36 µM; in the test with A549, 5.86 µM.
For the compound `Cc1ccc(CN2C(=O)N(c3ccc(Cl)cc3)C(=O)C2CCC(=O)Nc2ccc(C(=O)NO)cc2)cc1` (stereo not given), the IC50 is 0.959 µM on Histone deacetylase 1; 0.0044 µM in test [1]; greater than 100 µM against Histone deacetylase 4; 14.9 µM at Histone deacetylase 5; 0.164 µM in test [2]; greater than 100 µM against Histone deacetylase 11. Moreover, the half-inhibitory concentration (IC50) came out at 0.49 µM in the test on K562, 0.25 µM in the test on HL-60, 0.23 µM with RPMI-8226 and 0.79 µM in the test with A549.
